Results as given in ChEMBL document CHEMBL3045456, “Biological Activity of Carpropamid (KTU 3616)” (1997).
Calls of active or inactive are those of the source.

Tests used:
[1] = test system: Xanthomonas campestris pv. oryzae; test: Antibacterial activity against Xanthomonas campestris pv. oryzae assessed as colony color change after 2 days; type: functional, organism-based
[2] = test system: Penicillium digitatum; test: Antifungal activity against Penicillium digitatum assessed as colony color change after 2 to 7 days; type: functional, organism-based
[3] = test system: Fusarium oxysporum f. sp. lycopersici; test: Antifungal activity against Fusarium oxysporum f. sp. lycopersici assessed as colony colour change after 2 to 7 days; type: functional, organism-based
[4] = test system: Botrytis cinerea; test: Antifungal activity against Botryotinia fuckeliana assessed as growth inhibition after 2 to 7 days; type: functional; details: read-out: ED50 (the source's name)
[5] = test system: Fusarium fujikuroi; test: Antifungal activity against Fusarium fujikuroi assessed as growth inhibition after 2 to 7 days; type: functional; details: read-out: ED50 (the source's name)
[6] = test system: Pyricularia grisea; test: Inhibition of Magnaporthe grisea infection of rice plant at 0.01 % sprayed onto inoculated rice seedlings at every 2 hr from 2 to 12 hr after inoculation measured after 8 hr; type: functional, organism-based
[7] = test system: Sclerotinia sclerotiorum; test: Antifungal activity against Sclerotinia sclerotiorum assessed as growth inhibition after 2 to 7 days; type: functional; details: read-out: ED50 (the source's name)
[8] = test system: Pyricularia oryzae; test: Antifungal activity against Magnaporthe oryzae assessed as growth inhibition after 2 to 7 days; type: functional; details: read-out: ED50 (the source's name)
[9] = test system: Colletotrichum lagenaria; test: Antifungal activity against Colletotrichum lagenaria assessed as colony color change after 2 to 7 days; type: functional, organism-based
[10] = test system: Bipolaris oryzae; test: Antifungal activity against Bipolaris oryzae assessed as colony color change after 2 to 7 days; type: functional, organism-based
[11] = test system: Verticillium dahliae; test: Antifungal activity against Verticillium dahliae assessed as colony color change after 2 to 7 days; type: functional, organism-based
[12] = test system: Pseudomonas; test: Antibacterial activity against Pseudomonas lachrymans assessed as colony color change after 2 days; type: functional, organism-based
[13] = test system: Phytophthora nicotianae; test: Antifungal activity against Phytophthora nicotianae var. parasitica assessed as colony color change after 2 to 7 days; type: functional, organism-based
[14] = test system: Bipolaris oryzae; test: Antifungal activity against Bipolaris oryzae assessed as growth inhibition after 2 to 7 days; type: functional; details: read-out: ED50 (the source's name)
[15] = test system: Pyricularia oryzae; test: Antifungal activity against Magnaporthe oryzae assessed as colony color change after 2 to 7 days; type: functional, organism-based
[16] = test system: Pectobacterium carotovorum; test: Antibacterial activity against Pectobacterium carotovorum assessed as colony color change after 2 days; type: functional, organism-based
[17] = test system: Xanthomonas campestris pv. oryzae; test: Antibacterial activity against Xanthomonas campestris pv. oryzae assessed as growth inhibition after 2 days; type: functional; details: 48 h, read-out: ED50 (the source's name)
[18] = test system: Phytophthora nicotianae; test: Antifungal activity against Phytophthora nicotianae var. parasitica assessed as growth inhibition after 2 to 7 days; type: functional; details: read-out: ED50 (the source's name)
[19] = test system: Pectobacterium carotovorum; test: Antibacterial activity against Pectobacterium carotovorum assessed as growth inhibition after 2 days; type: functional; details: 48 h, read-out: ED50 (the source's name)
[20] = test system: Botryosphaeria kuwatsukai; test: Antifungal activity against Botryosphaeria berengeriana f.sp. pyricola assessed as colony color change after 2 to 7 days; type: functional, organism-based
[21] = test system: Colletotrichum lagenaria; test: Antifungal activity against Colletotrichum lagenaria assessed as growth inhibition after 2 to 7 days; type: functional; details: read-out: ED50 (the source's name)
[22] = test system: Cytospora ceratosperma; test: Antifungal activity against Valsa ceratosperma assessed as growth inhibition after 2 to 7 days; type: functional; details: read-out: ED50 (the source's name)
[23] = test system: Pythium; test: Antifungal activity against Pythium sp. assessed as growth inhibition after 2 to 7 days; type: functional; details: read-out: ED50 (the source's name)
[24] = test system: Pythium; test: Antifungal activity against Pythium sp. assessed as colony color change after 2 to 7 days; type: functional, organism-based
[25] = test system: Fusarium fujikuroi; test: Antifungal activity against Fusarium fujikuroi assessed as colony color change after 2 to 7 days; type: functional, organism-based
[26] = test system: Thanatephorus cucumeris; test: Antifungal activity against Thanatephorus cucumeris assessed as colony color change after 2 to 7 days; type: functional, organism-based
[27] = test system: Cytospora ceratosperma; test: Antifungal activity against Valsa ceratosperma assessed as colony color change after 2 to 7 days; type: functional, organism-based
[28] = test system: Botryosphaeria kuwatsukai; test: Antifungal activity against Botryosphaeria berengeriana f.sp. pyricola assessed as growth inhibition after 2 to 7 days; type: functional; details: read-out: ED50 (the source's name)
[29] = test system: Thanatephorus cucumeris; test: Antifungal activity against Thanatephorus cucumeris assessed as growth inhibition after 2 to 7 days; type: functional; details: read-out: ED50 (the source's name)
[30] = test system: Alternaria brassicicola; test: Antifungal activity against Alternaria brassicicola assessed as growth inhibition after 2 to 7 days; type: functional; details: read-out: ED50 (the source's name)
[31] = test system: Pyricularia oryzae; test: Inhibition of dark brown pigmentation formation in appressorium cells of Magnaporthe oryzae at > 0.1 ppm after 24 hr; type: functional, organism-based
[32] = test system: Pyricularia grisea; test: Inhibition of Magnaporthe grisea infection of rice plant at 0.01 % sprayed onto inoculated rice seedlings at every 2 hr from 2 to 12 hr after inoculation measured after 6 hr; type: functional, organism-based
[33] = test system: Pyricularia oryzae; test: Inhibition of spore germination in Magnaporthe oryzae up to 40 ppm after 24 hr; type: functional, organism-based
[34] = test system: Sclerotinia sclerotiorum; test: Antifungal activity against Sclerotinia sclerotiorum assessed as colony color change after 2 to 7 days; type: functional, organism-based
[35] = test system: Pseudomonas; test: Antibacterial activity against Pseudomonas lachrymans assessed as growth inhibition after 2 days; type: functional; details: 48 h, read-out: ED50 (the source's name)
[36] = test system: Nakataea oryzae; test: Antifungal activity against Magnaporthe salvinii assessed as colony color change after 2 to 7 days; type: functional, organism-based
[37] = test system: Botrytis cinerea; test: Antifungal activity against Botryotinia fuckeliana assessed as colony color change after 2 to 7 days; type: functional, organism-based
[38] = test system: Penicillium digitatum; test: Antifungal activity against Penicillium digitatum assessed as growth inhibition after 2 to 7 days; type: functional; details: read-out: ED50 (the source's name)
[39] = test system: Fusarium oxysporum f. sp. lycopersici; test: Antifungal activity against Fusarium oxysporum f. sp. lycopersici assessed as growth inhibition after 2 to 7 days; type: functional; details: read-out: ED50 (the source's name)
[40] = test system: Pyricularia oryzae; test: Inhibition of appressorium formation in Magnaporthe oryzae up to 40 ppm after 24 hr; type: functional, organism-based
[41] = test system: Verticillium dahliae; test: Antifungal activity against Verticillium dahliae assessed as growth inhibition after 2 to 7 days; type: functional; details: read-out: ED50 (the source's name)
[42] = test system: Nakataea oryzae; test: Antifungal activity against Magnaporthe salvinii assessed as growth inhibition after 2 to 7 days; type: functional; details: read-out: ED50 (the source's name)
[43] = test system: Alternaria brassicicola; test: Antifungal activity against Alternaria brassicicola assessed as colony color change after 2 to 7 days; type: functional, organism-based
[44] = test system: Pyricularia grisea; test: Inhibition of Magnaporthe grisea infection of rice plant at 0.01 % sprayed onto inoculated rice seedlings at every 2 hr from 2 to 12 hr after inoculation measured after 10 hr; type: functional, organism-based

CC[C@]1(C(=O)N[C@H](C)c2ccc(Cl)cc2)[C@H](C)C1(Cl)Cl (relative stereo) [trans-Carpropamid]
> 200 µg/mL: EC50 [4] | EC50 [5] | EC50 [7] | EC50 [8] | EC50 [14] | EC50 [17] | EC50 [19] | EC50 [21] | EC50 [22] | EC50 [28] | EC50 [29] | EC50 [30] | EC50 [35] | EC50 [38] | EC50 [39] | EC50 [41] | EC50 [42]
200 µg/mL: EC50 [23]
inactive: Activity [1] | Activity [2] | Activity [3] | inhibition [6] | Activity [12] | Activity [13] | Activity [16] | Activity [24] | Activity [25] | inhibition [31] | inhibition [33] | Activity [34] | Activity [37] | inhibition [40] | inhibition [44]
50 µg/mL: EC50 [18]
active: Activity [9] | Activity [10] | Activity [11] | Activity [15] | Activity [20] | Activity [26] | Activity [27] | inhibition [32] | Activity [36] | Activity [43]
